Results from patent publication US10362781B2, “Methods of controlling the breeding behavior of butterflies” (University of the West Indies, a Regional Institution, …, priority 2010, dated 2019).

Assays:
Type in all cases: in vivo, Heraclides andraemon
H. andraemon [1] = test: Egg laying of lime (citrus) plant bred H. andraemon given a choice of plants on which to lay (Example 7); conditions: eggs laid on Piper amalago var. amalago plants sprayed with the substance, lime plant-reared butterflies, choice of 4 plants
Method: The aerosol mixture for application to citrus plant and Piper amalago var. amalago plant materials was prepared by combining lime plant oil, Piper amalago var. amalago plant oil, d-limonene, or a combination thereof, with an alkane hydrocarbon mixture consisting of 28% butane and 72% propane. The aerosol was filled to a concentration of, e.g., 0.25% by weight of Piper amalago var. amalago plant oil in the hydrocarbon mixture or, e.g., 0.45% by weight of lime plant oil in the hydrocarbon mixture.
H. andraemon larvae were reared on lime plant. When they pupated and were ready to lay eggs, they were given the choice of plants on which to lay eggs: unsprayed lime plants, unsprayed Piper amalago var. amalago plants, Piper amalago var. amalago plants sprayed with lime plant oil, and Piper amalago var. amalago plants sprayed with d-limonene. Egg laying was permitted to continue until the butterflies ceased laying eggs. Nearly 100% of the eggs laid hatched into larvae.
Table 5 summarizes the results of an experiment in which the faithfulness of egg laying on the species of plant on which the butterflies were reared was confirmed. In this experiment, both lime plant oil and d-limonene were sprayed onto Piper amalago var. amalago plant to determine whether the butterflies discriminated between the two.

H. andraemon [2] = test: Egg laying of Piper amalago var. amalago plant bred H. andraemon given a choice of plants on which to lay (Example 8); conditions: eggs laid on citrus plant sprayed with the substance, Piper amalago var. amalago-reared butterflies, choice of 4 plants
Source text: H. andraemon larvae were reared on Piper amalago var. amalago plant. When they pupated and were ready to lay eggs, the butterflies were given the choice of plants on which to lay eggs: unsprayed lime plants, unsprayed Piper amalago var. amalago plants, citrus plant sprayed with Piper amalago var. amalago plant oil, and citrus plant sprayed with d-limonene. The egg laying was permitted to continue until the butterflies ceased laying eggs.

H. andraemon [3] = test: H. andraemon egg laying on lime plant seedling and P. aduncum, choice of four plants (Example 9); conditions: P. aduncum cuttings sprayed twice daily with 0.15% d-limonene aerosol; choice of 4 plants
Source text: Butterflies were induced to lay on host plant Piper aduncum plant sprayed with lime plant oil, or lime plant sprayed with Piper aduncum plant oil. Piper aduncum shoots were collected in Andrew, Jamaica, and 297.35 g of leaves were placed in a Clevenger-type extractor and extracted with boiling water. Once extracted according to the methods described in Example 2, 0.8919 g of a clear oil with a minty-like odor was obtained, a yield of 0.30% by weight.
Four Heraclides andraemon pupae were placed in the cage previously described in Example 1. Three pupae hatched into adults, two males and a female, which were allowed to mate and lay eggs. They were given a choice of four types of plants on which to lay: unsprayed Piper aduncum cuttings; Piper aduncum cuttings sprayed with d-limonene; unsprayed lime seedlings; and lime seedlings sprayed with the Piper aduncum emulsion. These plants, all with young leaves, were placed around the cage.
Cuttings from the Piper aduncum shoots with young leaves were used to attempt to induce butterflies to feed and lay eggs on a Piper aduncum plant treated with lime plant extract. The Piper aduncum cuttings were sprayed twice daily for eight days, once in the morning and once in the afternoon, with a d-limonene aerosol formulation. The d-limonene aerosol formulation was prepared as a hydrocarbon mixture of 72% propane and 28% butane, with 0.15% d-limonene. […]

C=C(C)[C@H]1CC=C(C)CC1 [d-limonene]
% of eggs laid (H. andraemon [1]): 25.00%
No. of eggs laid (H. andraemon [1]; total 208 eggs): 52
% of eggs laid (H. andraemon [2]): 13.47%
No. of eggs laid (H. andraemon [2]; total 193 eggs): 26
% of eggs laid (H. andraemon [3]): 0%
No. of Eggs after 5 Days (H. andraemon [3]): 0
